Measured values taken from US5358712A, “Radiopharmaceutical agents for the detection of Alzheimer's disease” (Regents of the University of Minnesota, priority 1993, dated 1994).
Blank lines part the entries; values can stand above or below the compound they belong to.

What was measured:
vesamicol receptor = assay: Blocking experiments: inhibition of radiotracer accumulation in the rat by coadministered compound; assay type: in vivo, rat (male Wistar); conditions: for effect of coadministered vesamicol on accumulation (in words) / Brain: Blood Ratio / Heart: Blood Ratio / radioactivity in blood / radioactivity in brain / radioactivity in heart / radioactivity in kidney / radioactivity in liver / radioactivity in lung / radioactivity in muscle / radioactivity in spleen: rat; for Brain: Blood Ratio / Heart: Blood Ratio / radioactivity in blood / radioactivity in brain / radioactivity in heart / radioactivity in kidney / radioactivity in liver / radioactivity in lung / radioactivity in muscle / radioactivity in spleen: iv, 60 min
Method: *Animals in group 1 received an iv injection of (+)4-[^125 l]HIPP
only. For groups 2, 3, and 4, the radiotracer was coadministered with the
hydrochlorides of (+)7 (0.53 mg/kg), (-)7 (0.53 mg/kg) and vesamicol (0.3
Four groups of male Wistar rats (n=3) were used in these experiments. All animals received an iv dose of 8-10 μCi of the radiotracer in 0.1 ml of 50% aq. ethanol. Additionally, in groups 2, 3 and 4, the radiotracer was coadministered with (+)-HBrPP.HCl(1.3 μmol/kg), (-)-HBrPP.HCl(1.3 μmol/kg) and (dl)-vesamicol hydrochloride (1.1 μmol/kg), respectively. At 60 min. post-injection, blood was collected by cardiac puncture and the animals sacrificed as described above. The data was analyzed as outlined above.
NOTE: The dose of radiotracer injected was 5-7 mCi. Group I was the
control, injected with the radiotracer only. Group II included the
simultaneous injection of "cold"(dl)3-HIPP (HCl) (0.53 mg/kg). Group III
included the simultaneous injection of (dl) vesamicol (HCl) (0.31 mg/kg).
All rats were sacrificed at one hour postinjection.
NOTE: Group I was the control, injected with the radiotracer only. Group
II included the simultaneous injection of "cold"(dl)3-HIPP (HCl) (0.53
mg/kg). Group III included the simultaneous injection of (dl) vesamicol
hydrochloride (0.31 mg/kg). The dose of radiotracer was 8-9 μCi. All
rats were sacrificed at one hour postinjection.
NOTE: Group I received (+)[^125 l]13 only. Group II received the (+)
radiotracer coinjected with 0.31 mg/kg (dl)vesamicol hydrochloride. Group
III received (-)[^125 l]13 only. Group IV received the (-) radiotrace
coinjected with 0.31 mg/kg (dl)vesamicol hydrochloride. All animals were
sacrificed at one hour postinjection. The dose of radiotracer injected pe

[1] = Tissue distribution (biodistribution) of radioiodinated compound in the rat; conditions: for tissue uptake at 5 min / tissue uptake at 0.5 h / tissue uptake at 1 h / tissue uptake at 3 h / decrease of concentration in the brain / initial accumulation in the rat brain / Brain: Blood Ratio / Heart: Blood Ratio / radioactivity in brain / radioactivity in blood / radioactivity in heart / radioactivity in kidney / radioactivity in liver / radioactivity in lung / radioactivity in muscle / radioactivity in spleen: rat; for tissue uptake at 5 min / tissue uptake at 0.5 h / tissue uptake at 1 h / tissue uptake at 3 h / Brain: Blood Ratio / Heart: Blood Ratio / radioactivity in brain / radioactivity in blood / radioactivity in heart / radioactivity in kidney / radioactivity in liver / radioactivity in lung / radioactivity in muscle / radioactivity in spleen: iv; for tissue uptake at 0.5 h: 30 min
Method: Four groups of male Wistar rats (with four animals per group) weighing 200-350 g were used in these experiments. Each animal received, while under ether anesthesia, an intravenous injection of the radiotracer (10-20 μCi) dissolved in 0.1 ml of 50% aqueous ethanol. At 5, 30, and 60 and 180 min. post-injection, blood was collected from the anesthetized animals by cardiac puncture, and the animal was immediately sacrificed by cardiectomy. The organs and tissues of interest were harvested, transferred to preweighed tubes and counted in a Beckman gamma counter. The tubes were subsequently reweighed to give the weight of the corresponding tissues. Preweighed tubes containing ^1 -ml samples of a 1:100 dilution of the injection dose were also counted and used as reference for calculating the tissue accumulation of radioactivity. The accumulation of radiotracer was expressed as a percentage of injected dose per gram of tissue.

[2] = + (dl)-vesamicol HCl 0.3 (Table 3) or 0.31 mg/kg
[3] = + cold (dl)3-HIPP HCl 0.53 mg/kg

Structure (SMILES): OC(Cc1ccc(I)cc1)CN1CCC(c2ccccc2)CC1 (racemic) [Compound 5, (dl)-2-Hydroxy-3-(4-iodophenyl)-1-(4-phenylpiperidyl)propane]
vesamicol receptor ligand (in words) (vesamicol receptor; conclusion from blocking and regional distribution in vivo): potent ligand | effect of coadministered vesamicol on accumulation (in words) (vesamicol receptor): can be blocked by vesamicol | brain retention (in words) ([1]; rodent (and monkey)): prolonged brain retention

Structure (SMILES): OC(Cc1ccc([125I])cc1)CN1CCC(c2ccccc2)CC1 (single isomer, unassigned; (+)) [(+)-4-[^125 l]HIPP, 2-Hydroxy-3-(4-iodophenyl)-1-(4-phenylpiperidyl)propane]
tissue uptake at 5 min ([1]; blood, radioactivity in blood, 5 min): 0.08 %ID/g | tissue uptake at 0.5 h ([1]; blood, radioactivity in blood): 0.04 %ID/g | tissue uptake at 1 h ([1]; blood, radioactivity in blood, 60 min): 0.03 %ID/g | tissue uptake at 5 min ([1]; brain, radioactivity in brain, 5 min): 1.2 %ID/g | tissue uptake at 0.5 h ([1]; brain, radioactivity in brain): 1.22 %ID/g | tissue uptake at 1 h ([1]; brain, radioactivity in brain, 60 min): 1.23 %ID/g | tissue uptake at 3 h ([1]; brain, radioactivity in brain, 180 min): 1.35 %ID/g | tissue uptake at 5 min ([1]; heart, radioactivity in heart, 5 min): 1.8 %ID/g | tissue uptake at 0.5 h ([1]; heart, radioactivity in heart): 1.23 %ID/g | tissue uptake at 1 h ([1]; heart, radioactivity in heart, 60 min): 1.12 %ID/g | tissue uptake at 3 h ([1]; heart, radioactivity in heart, 180 min): 0.84 %ID/g | tissue uptake at 5 min ([1]; kidney, radioactivity in kidney, 5 min): 2.84 %ID/g | tissue uptake at 0.5 h ([1]; kidney, radioactivity in kidney): 2.42 %ID/g | tissue uptake at 1 h ([1]; kidney, radioactivity in kidney, 60 min): 2.3 %ID/g | tissue uptake at 3 h ([1]; kidney, radioactivity in kidney, 180 min): 1.81 %ID/g | tissue uptake at 5 min ([1]; liver, radioactivity in liver, 5 min): 1.58 %ID/g | tissue uptake at 0.5 h ([1]; liver, radioactivity in liver): 2.55 %ID/g | tissue uptake at 1 h ([1]; liver, radioactivity in liver, 60 min): 2.43 %ID/g | tissue uptake at 3 h ([1]; liver, radioactivity in liver, 180 min): 2.38 %ID/g | tissue uptake at 5 min ([1]; lung, radioactivity in lung, 5 min): 11.5 %ID/g | tissue uptake at 0.5 h ([1]; lung, radioactivity in lung): 5.59 %ID/g | tissue uptake at 1 h ([1]; lung, radioactivity in lung, 60 min): 4.75 %ID/g | tissue uptake at 3 h ([1]; lung, radioactivity in lung, 180 min): 3.74 %ID/g | tissue uptake at 5 min ([1]; muscle, radioactivity in muscle, 5 min): 0.24 %ID/g | tissue uptake at 0.5 h ([1]; muscle, radioactivity in muscle): 0.25 %ID/g | tissue uptake at 1 h ([1]; muscle, radioactivity in muscle, 60 min): 0.19 %ID/g | tissue uptake at 3 h ([1]; muscle, radioactivity in muscle, 180 min): 0.24 %ID/g | tissue uptake at 5 min ([1]; spleen, radioactivity in spleen, 5 min): 0.71 %ID/g | tissue uptake at 0.5 h ([1]; spleen, radioactivity in spleen): 1.28 %ID/g | tissue uptake at 1 h ([1]; spleen, radioactivity in spleen, 60 min): 1.23 %ID/g | tissue uptake at 3 h ([1]; spleen, radioactivity in spleen, 180 min): 1.39 %ID/g

effect of coadministered vesamicol on accumulation (in words) (vesamicol receptor): inhibited | Brain: Blood Ratio (vesamicol receptor; [2]): 2.14 | Heart: Blood Ratio (vesamicol receptor; [2]): 1.10 | Brain: Blood Ratio (vesamicol receptor; [3]): 1.92 | Heart: Blood Ratio (vesamicol receptor; [3]): 1.16 | Brain: Blood Ratio (vesamicol receptor; radiotracer only (control)): 8.49 | Heart: Blood Ratio (vesamicol receptor; radiotracer only (control)): 3.96 | decrease of concentration in the brain ([1]; 1 hour post-injection vs initial, listed as (+)-[^125 I]12): 20% | decrease of concentration in the brain ([1]; 3 hours post-injection vs initial, listed as (+)-[^125 I]12): 54% | initial accumulation in the rat brain ([1]; listed as (+)-[^125 I]12): 2.08 % of the injected dose | Brain: Blood Ratio ([1]; 5 min): 13.1 | Heart: Blood Ratio ([1]; 5 min): 16.4 | Brain: Blood Ratio ([1]; 60 min): 9.2 | Heart: Blood Ratio ([1]; 60 min): 4.2 | Brain: Blood Ratio ([1]; 180 min): 7.2 | Heart: Blood Ratio ([1]; 180 min): 2.1 | radioactivity in brain ([1]; 180 min): 0.56 % dose/g
Structure (SMILES): OC(Cc1cccc([125I])c1)CN1CCC(c2ccccc2)CC1 (single isomer, unassigned; (+)) [(+)-[^125 l]12] [2-Hydroxyl-3-(3-iodophenyl)-1-[1-(4-phenylpiperidinyl)]propane]

effect of coadministered vesamicol on accumulation (in words) (vesamicol receptor): inhibited | Brain: Blood Ratio (vesamicol receptor; [2]): 1.40 | Heart: Blood Ratio (vesamicol receptor; [2]): 0.95 | radioactivity in blood (vesamicol receptor; [2]): 0.14 % dose/g of tissue | radioactivity in brain (vesamicol receptor; [2]): 0.20 % dose/g of tissue | radioactivity in heart (vesamicol receptor; [2]): 0.14 % dose/g of tissue | radioactivity in kidney (vesamicol receptor; [2]): 0.46 % dose/g of tissue | radioactivity in liver (vesamicol receptor; [2]): 0.81 % dose/g of tissue | radioactivity in lung (vesamicol receptor; [2]): 0.73 % dose/g of tissue | radioactivity in muscle (vesamicol receptor; [2]): 0.13 % dose/g of tissue | radioactivity in spleen (vesamicol receptor; [2]): 0.50 % dose/g of tissue | radioactivity in blood (vesamicol receptor; [3]): 0.13 % dose/g of tissue | Brain: Blood Ratio (vesamicol receptor; [3]): 1.19 | Heart: Blood Ratio (vesamicol receptor; [3]): 0.87 | radioactivity in brain (vesamicol receptor; [3]): 0.15 % dose/g of tissue | radioactivity in heart (vesamicol receptor; [3]): 0.11 % dose/g of tissue | radioactivity in kidney (vesamicol receptor; [3]): 0.46 % dose/g of tissue | radioactivity in liver (vesamicol receptor; [3]): 0.63 % dose/g of tissue | radioactivity in lung (vesamicol receptor; [3]): 0.57 % dose/g of tissue | radioactivity in muscle (vesamicol receptor; [3]): 0.10 % dose/g of tissue | radioactivity in spleen (vesamicol receptor; [3]): 0.36 % dose/g of tissue | Brain: Blood Ratio (vesamicol receptor; radiotracer only (control)): 5.08 | Heart: Blood Ratio (vesamicol receptor; radiotracer only (control)): 1.57 | radioactivity in blood (vesamicol receptor; radiotracer only (control)): 0.13 % dose/g of tissue | radioactivity in brain (vesamicol receptor; radiotracer only (control)): 0.64 % dose/g of tissue | radioactivity in heart (vesamicol receptor; radiotracer only (control)): 0.20 % dose/g of tissue | radioactivity in kidney (vesamicol receptor; radiotracer only (control)): 0.98 % dose/g of tissue | radioactivity in liver (vesamicol receptor; radiotracer only (control)): 0.86 % dose/g of tissue | radioactivity in lung (vesamicol receptor; radiotracer only (control)): 0.92 % dose/g of tissue | radioactivity in muscle (vesamicol receptor; radiotracer only (control)): 0.15 % dose/g of tissue | radioactivity in spleen (vesamicol receptor; radiotracer only (control)): 0.83 % dose/g of tissue | decrease of concentration in the brain ([1]; 1 hour post-injection vs initial, listed as (-)-[^125 I]12): 43% | decrease of concentration in the brain ([1]; 3 hours post-injection vs initial, listed as (-)-[^125 I]12): 74% | initial accumulation in the rat brain ([1]; listed as (-)-[^125 I]12): 1.86 % of the injected dose | Brain: Blood Ratio ([1]; 5 min): 9.0 | Heart: Blood Ratio ([1]; 5 min): 11.4 | radioactivity in blood ([1]; 5 min): 0.11 % dose/g | radioactivity in brain ([1]; 5 min): 0.98 % dose/g | radioactivity in heart ([1]; 5 min): 1.26 % dose/g | radioactivity in kidney ([1]; 5 min): 2.46 % dose/g | radioactivity in liver ([1]; 5 min): 1.41 % dose/g | radioactivity in lung ([1]; 5 min): 8.94 % dose/g | radioactivity in muscle ([1]; 5 min): 0.36 % dose/g | radioactivity in spleen ([1]; 5 min): 0.66 % dose/g | Brain: Blood Ratio ([1]; 60 min): 5.1 | Heart: Blood Ratio ([1]; 60 min): 1.9 | radioactivity in blood ([1]; 60 min): 0.11 % dose/g | radioactivity in brain ([1]; 60 min): 0.56 % dose/g | radioactivity in heart ([1]; 60 min): 0.21 % dose/g | radioactivity in kidney ([1]; 60 min): 1.00 % dose/g | radioactivity in liver ([1]; 60 min): 1.04 % dose/g | radioactivity in lung ([1]; 60 min): 1.04 % dose/g | radioactivity in muscle ([1]; 60 min): 0.14 % dose/g | radioactivity in spleen ([1]; 60 min): 0.95 % dose/g | Brain: Blood Ratio ([1]; 180 min): 2.6 | Heart: Blood Ratio ([1]; 180 min): 0.9 | radioactivity in blood ([1]; 180 min): 0.11 % dose/g | radioactivity in brain ([1]; 180 min): 0.27 % dose/g | radioactivity in heart ([1]; 180 min): 0.10 % dose/g | radioactivity in kidney ([1]; 180 min): 0.59 % dose/g | radioactivity in liver ([1]; 180 min): 0.79 % dose/g | radioactivity in lung ([1]; 180 min): 0.46 % dose/g | radioactivity in muscle ([1]; 180 min): 0.08 % dose/g | radioactivity in spleen ([1]; 180 min): 0.44 % dose/g
Structure (SMILES): OC(Cc1cccc([125I])c1)CN1CCC(c2ccccc2)CC1 (single isomer, unassigned; (-)) [(-)-[^125 l]12] [2-Hydroxyl-3-(3-iodophenyl)-1-[1-(4-phenylpiperidinyl)]propane]
